Results published in patent US10780081B2, “Method of treating multiple sclerosis employing a LSD1-inhibitor” (ORYZON GENOMICS, S.A., priority 2016, dated 2020).

Tests used:
Human recombinant LSD1 = target: T1, Human recombinant LSD1 (Homo sapiens, UniProt O60341); assay: LSD1 in vitro biochemical assay (Amplex Red, di-methylated H3-K4 peptide); details: read-out: IC50 against LSD1
T1 construct: amino acids 158-end with N-terminal GST tag; GST (N); purchased BPS Bioscience Inc 50100
Source text: In order to monitor LSD1 enzymatic activity and/or its inhibition rate by a test compound, di-methylated H3-K4 peptide (Anaspec) was chosen as a substrate. The demethylase activity was estimated, under aerobic conditions, by measuring the release of H2O2 produced during the catalytic process, using the Amplex® Red hydrogen peroxide/peroxidase assay kit (Invitrogen).
Tranylcypromine (Biomol International) was used as a control for inhibition. Within the experiment, each concentration of inhibitor was tested in duplicate. After leaving the enzyme interacting with the inhibitor, KM of di-methylated H3-K4 peptide was added to each reaction and the experiment was left for 30 minutes at 37° C. in the dark. The enzymatic reactions were set up in a 50 mM sodium phosphate, pH 7.4 buffer. […] The conversion of the Amplex® Red reagent to resorufin due to the presence of H2O2 in the assay, was monitored by fluorescence (excitation at 540 nm, emission at 590 nm) using a microplate reader (Infinite 200, Tecan). […] The maximum demethylase activity of LSD1 was obtained in the absence of inhibitor and corrected for background fluorescence in the absence of LSD1. The IC50 value of each inhibitor was calculated with GraphPad Prism Software.

Human recombinant MAO-A = target: T2, Human recombinant MAO-A (Homo sapiens, UniProt P21397); assay: MAO-A kynuramine fluorescence assay; assay type: biochemical
T2 construct: purchased Sigma Aldrich
T2 sequence (P21397 1-527): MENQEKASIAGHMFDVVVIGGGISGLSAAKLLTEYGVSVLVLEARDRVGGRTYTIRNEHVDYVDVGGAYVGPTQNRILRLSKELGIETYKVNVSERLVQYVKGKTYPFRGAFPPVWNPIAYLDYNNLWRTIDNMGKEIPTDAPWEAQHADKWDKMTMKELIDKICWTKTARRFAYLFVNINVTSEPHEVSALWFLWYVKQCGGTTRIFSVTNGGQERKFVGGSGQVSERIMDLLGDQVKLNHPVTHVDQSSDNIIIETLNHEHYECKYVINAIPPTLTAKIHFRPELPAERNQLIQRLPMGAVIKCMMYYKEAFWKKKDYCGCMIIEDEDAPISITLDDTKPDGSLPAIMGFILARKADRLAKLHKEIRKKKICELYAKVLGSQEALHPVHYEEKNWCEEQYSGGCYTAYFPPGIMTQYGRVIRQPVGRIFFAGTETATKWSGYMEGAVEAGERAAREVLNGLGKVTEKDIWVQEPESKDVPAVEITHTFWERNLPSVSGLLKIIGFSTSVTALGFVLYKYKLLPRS
Source text: Human recombinant monoamine oxidase proteins MAO-A and MAO-B were purchased from Sigma Aldrich. MAOs catalyze the oxidative deamination of primary, secondary and tertiary amines. In order to monitor MAO enzymatic activities and/or their inhibition rate by inhibitor(s) of interest, a fluorescence-based (inhibitor)-screening assay was set up. 3-(2-Aminophenyl)-3-oxopropanamine (kynuramine dihydrobromide, Sigma Aldrich), a non fluorescent compound was chosen as a substrate. Kynuramine is a non-specific substrate for both MAO-A and MAO-B activities. While undergoing oxidative deamination by MAO activities, kynuramine is converted into 4-hydroxyquinoline (4-HQ), a resulting fluorescent product.
The monoamine oxidase activity was estimated by measuring the conversion of kynuramine into 4-hydroxyquinoline. […]
After leaving the enzyme(s) interacting with the inhibitor, KM of kynuramine was added to each reaction for MAO-B and MAO-A assay respectively, and the reaction was left for 1 hour at 37° C. in the dark. […] The conversion of kynuramine to 4-hydroxyquinoline, was monitored by fluorescence (excitation at 320 nm, emission at 360 nm) using a microplate reader (Infinite 200, Tecan). Arbitrary units were used to measure levels of fluorescence produced in the absence and/or in the presence of inhibitor.
The IC50 values of each inhibitor were calculated with GraphPad Prism Software.

[1] = system: Experimental Autoimmune Encephalomyelitis (EAE); assay: Experimental autoimmune encephalomyelitis (EAE) model, MOG35-55, daily clinical score; assay type: in vivo, C57BL/6 mice
Procedure: To induce chronic EAE by active immunization, C57BL/6 mice were immunized s.c. with 100 μg of myelin oligodendrocyte glycoprotein MOG35-55 emulsified in complete Freund's adjuvant (CFA) containing 4 mg/ml Mycobacterium tuberculosis H37 RA. Mice also received i.p. injections of 200 ng of pertussis toxin on days 0 and 2.
Mice were scored daily for signs of EAE according to the following clinical scoring system: 0, no clinical signs; 0.5, partial loss of tail tonicity; 1, complete loss of tail tonicity; 2, flaccid tail and abnormal gait; 3, hind leg paralysis; 4, hind leg paralysis with hind body paresis; 5, hind and fore leg paralysis; and 6, death.
Control mice were orally treated with vehicle [2% v/v Tween-80+98% HPβCD (13% w/v)] following the same regime of administration. Mice were scored daily for signs of EAE according to clinical scoring system described in Example 3.1. n=10 mice/group. […]. […] Mice were scored daily for signs of EAE, using the scores described in Example 3.1. Animals were sacrificed on day 26 postimmunization and samples were collected and processed as described below. n=10 mice/group.

[2] = system: demyelination and inflammatory cell infiltration in spinal cord; assay: Histopathological analysis of spinal cord in EAE mice (Kluver-Barrera); assay type: in vivo, C57BL/6 mice; details: 0.5 mg/kg p.o., day 26 postimmunization
Procedure: (§1) Mice were scored daily for signs of EAE, using the scores described in Example 3.1. Animals were sacrificed on day 26 postimmunization and samples were collected and processed as described below. n=10 mice/group.
(§2) Tissue collection and cell isolation. On day 26 postimmunization, spleen, draining lymph nodes (DLNs: cervicals, inguinals and axillaries), and spinal cord were removed. Spinal segments of the cervical and lumbar regions were prepared separately and processed for protein extraction, and histopathological analysis. Single-cell suspensions were obtained from spleen or pooled lymph nodes, the samples were homogenized and total number of cells was quantified using Neubauer chamber.
Processing of samples for histopathological analysis. Cervical and lumbar spinal cord segments were divided and processed for inclusion and sectioning in paraffin. Spinal cord segments were immediately fixed with buffered 10% formalin for 48h, dehydrated and included in paraffin using standard techniques. Transversal sections (4-μm thickness) were stained with Luxol fast blue, cresyl violet, and hematoxylin following the Klüver-Barrera technique and were analyzed for the presence of areas of demyelination and cell infiltration using a light microscope (Leica, DM2000).

[3] = system: immune cells in spleen and lymph nodes; assay: Number of immune cells in spleen and lymph nodes of EAE mice; assay type: in vivo, C57BL/6 mice; details: 0.5 mg/kg p.o., day 26 postimmunization, vs vehicle
Procedure: as §1, §2
(§3) Statistical Analysis: Cell number analysis in lymph nodes and spleen: statistical differences are indicated as ***p<0.001 vs vehicle using ANOVA test. Cytokine/chemokine level analysis: statistical differences are indicated as: *p<0.05, **p<0.005, using Mann-Whitney test; unpaired t-test was used for IP-10 level analysis.

[4] = system: IL-4, IL-6, IL-1beta, IP-10, MCP-1 in spinal cord; assay: Cytokine/chemokine levels in spinal cord of EAE mice by ELISA; assay type: in vivo, C57BL/6 mice; details: 0.5 mg/kg p.o., day 26, vs vehicle
Procedure: as §1
Protein extraction and cytokine/chemokine analysis. Proteins were extracted from cervical and lumbar segments of spinal cord by homogenization (50 mg tissue/[…]) in lysis buffer (50 mM Tris-HCl, pH 7.4, 0.5 mM DTT, and 10 μg/ml proteinase inhibitors PMSF, pepstatin, and leupeptin). Samples were centrifuged (20.000×g, 15 min, 4° C.) and the supernatants were assayed for protein concentration (using Bradford method) and for cytokine/chemokine contents by using specific sandwich ELISAs for IL-4, IL-6, IL-1beta, IP-10 and MCP-1, according to manufacturer's recommendations, using the following antibodies and recombinant proteins:
as §3

[5] = Tolerability at therapeutic doses; assay type: in vivo

Row | SMILES | IC50 (Human recombinant LSD1) | IC50 (Human recombinant MAO-A) | Development of EAE, disease incidence and severity by daily clinical score ([1]; 0.5 mg/kg p.o., Example 4) | Development of EAE, disease incidence and severity by daily clinical score ([1]; 1 or 3 mg/kg p.o., days 12-16 and 19-23 postimmunization) | Mice displaying mild symptoms ([1]; 1 or 3 mg/kg p.o., therapeutic regime) | Mice almost completely recovered ([1]; 1 or 3 mg/kg p.o., 40 days after disease onset) | Dose at which clinical score in EAE is reduced (as low as) ([1]; p.o., tested at 1, 0.5 and 0.05 mg/kg) | Inflammatory cell infiltration and demyelination areas in cervical and lumbar spinal cord [2] | Mean number of demyelination plaques in cervical and lumbar spinal cord [2] | Number of immune cells retained in spleen and lymph nodes [3] | IL-1 beta level in spinal cord [4] | IL-4 level in spinal cord [4] | IL-6 level in spinal cord [4] | IP-10 level in spinal cord [4] | MCP-1 level in spinal cord [4] | Tolerability on long-term treatment ([5]; 0.5 mg/kg p.o., mice) | Effects on hematology or circulating lymphocyte counts, gastro-intestinal toxicity ([5]; at therapeutically effective doses, no method or species printed) | Effect on EAE clinical score ([1]; 0.06 and 0.180 mg/kg p.o., same scheme as Example 3.1)
1 | Nc1nnc(CN[C@@H]2C[C@H]2c2ccc(OCc3ccccc3)cc2)o1 (single isomer, unassigned) [Compound 1, (−) 5-((((trans)-2-(4-(benzyloxy)phenyl)cyclopropyl)amino)methyl)-1,3,4-oxadiazol-2-amine] | 0.09 µM | 5.3 µM | greatly inhibited the development of EAE | greatly inhibited the development of EAE | 40-70% | 30% | ≤ 0.05 mg/kg | no inflammatory cell infiltration nor demyelination areas were observed | absent or greatly reduced demyelination | significant increase | reduced | significantly increased | reduced | significantly reduced | significantly reduced | well-tolerated | do not produce clinically relevant effects on hematology or circulating lymphocyte counts | –
2 | Fc1ccccc1[C@@H]1C[C@H]1NC1CCNCC1 [ORY-LSD1, N-((1R,2S)-2-(2-fluorophenyl)cyclopropyl)piperidin-4-amine, reference compound] | – | – | – | – | – | – | – | – | – | – | – | – | – | – | – | – | – | clear tendency for improvement
